In patent US20250073338A1, “CONJUGATE COMPOUNDS AND COMPOSITIONS” (REZUBIO PHARMACEUTICALS CO., LTD, priority 2023, published 2025):
Structures can show the parent of a compound that is named as a salt.

What was measured:
[1] = Pharmacokinetics in mice (IV and PO), plasma LC-MS/MS; assay type: in vivo, Male ICR (CD-1) mice; conditions: for Cl / AUC / half-life / Vd: IV (1 mpk); for AUC / half-life / Vd / Cmax / Tmax / bioavailability: male, ICR (CD-1), mouse, plasma; for AUC / half-life / Vd: 1 mg/kg; for half-life: read-out: T½ (converted); for Vd: read-out: Vss; for Cmax / Tmax / bioavailability: 10 mg/kg, PO (10 mpk); for bioavailability: oral bioavailability
Experimental: Male ICR (CD-1) mice at around 4-6 weeks with body weight of around 25 grams (n=3) were purchased from VT-River (Zhejiang, China). After 1-week acclimation, animals were dosed with exemplary compounds intravenously at 1 mpk or orally at 10 mpk (0.5% methylcellulose in PBS as vehicle for both routes of administration). Blood samples (30 μL) were collected via saphenous vein puncture at 5 (IV only), 15, 30, 60, 120, 240, 480, and 1440 min post dose. The blood samples were saved in 0.5 M K2EDTA coated tubes and centrifuged at 4,600 rpm at 4° C. for 5 min. Plasma samples were collected and stored in −80° C. till PK analysis.
Take 10 μL of K2EDTA-treated plasma samples of CD-1 mice, add 200 μL of precipitation solution with internal standard (5 ng/mL Terfenadine in MeOH/ACN), mix well by vortexing for 1 min at room temperature followed by centrifuge at 4° C. and 4000 rpm for 15 min. Save the supernatant as injection for LC-MS/MS quantification of exemplary compounds in plasma samples of mice.
Establish a standard curve before and after each analytical batch, accompanied by quality controls of low, medium, and high concentrations. The number of quality control samples is not less than 6 and should be equal to or more than the number of samples of each batch, and interspersed in sample measurement. Standard curve and quality control samples of each batch must meet the acceptance criteria.

GPR40 = molecular target: T1, GPR40 (Homo sapiens, UniProt O14842); experiment: IP1 accumulation assay in HEK293 cells stably expressing GPR40; assay type: cell-based; conditions: HEK293 cells stably expressing GPR40, 2 hours at 37° C.
T1 construct: expressed in transfected cells
Experimental: IP1 accumulation assay was used to evaluate the potency of compounds. HEK293 cells stably expressing GPR40 were cultured in 5% CO2 incubator (ThermoFisher) in maintenance media (Dulbecco's modified Eagle's medium with 4.5 g/L of glucose, 10% fetal bovine serum, 100 μg/mL Hygromycin, and Penicillin (100 U/mL)/Streptomycin (100 μg/mL)) till 100% confluency. Cells were harvested freshly, spun down at 300× g for 5 min, and resuspended in pre-warmed 1× stimulant buffer from Cisbio IP-One HTRF Detection kit (Cisbio). Cell density was adjusted to 2.0×10^6 cells/mL. DMSO was used as blank control and AMG-1638 (CAS #: 1142214-62-7) as positive control. Compounds were prepared at 10 mM in DMSO and 5 nL of 3× serially diluted compounds (10 concentrations) were added to each well of the 384-LDV assay plate (Corning) by using ECHO 550 (Labcyte). Five μL of cells in suspension were transferred into each well by using Multidrop Combi Reagent Dispenser (ThermoFisher). Assay plate was then sealed and incubated at 37° C. for 2 hours. IP-d2 reagent and anti-IP1 reagent were prepared following the manual (Cisbio). Five μL of IP1-d2 and then 5 μL of anti-IP1 antibody was added to each well sequentially. Assay plate was incubated at room temperature for 60 min and then read at 665 nm/615 nm on an Envision plate reader (PerkinElmer). The ratio of values obtained at 665 nm and 615 nm was used for calculation of IP1 accumulation: % Effect=(Ratiosample−Ratioblank)/(RatioAMG-1638−Ratioblank)×100. Dose curve was fitted and EC50 of each compound was calculated by using XLFit.

[2] = Plasma drug concentration at end of oGTT study by LC-MS/MS; assay type: in vivo, Male C57BL/6 mice; conditions: male, C57BL/6, mouse, 30 mpk oral, 6 h post dose, read-out: Drug conc
Experimental: (§1) Male C57BL/6 mice were purchased from Zhejiang Vital River Laboratories Co., Ltd (a branch of Charles River Laboratories) at around 7-8 weeks of age (n=8). Animal were kept under regular light/dark cycle (12 h light: 12 h dark, L^D) at room temperature and fed regular chow diet and tap water ad libitum in facility for more than one week. On study day, animals were fasted by removing food at 7:00 AM. Blood glucose was measured at 9:00 AM by a glucometer (Roche) via tail bleeding and mice were sorted to groups of treatment based on average blood glucose (˜[…]). The vehicle (0.5% methylcellulose) or exemplary compounds solutions (30 mpk dose) were mixed well and dosed by oral gavage (dosing volume=10 ml/kg body weight). At 1:00 PM, blood glucose was measured by a glucometer (0 min). Animals were then PO dosed with 5 g/kg glucose for oral glucose challenge. Blood glucose was then measured at 20, 40, 60, and 120 min by glucometer. At the end of study, 50 μl tail blood from treatment groups were collected and mixed with 4% sodium citrate (vol 9:1). Tubes were centrifuged in a benchtop centrifuge for 10 min at 8,000 RPM at 4° C. Plasma samples were separated and stored in −80° C. freezer for measurements of PK by LC-MS/MS.

C57BL/6 mice = experiment: oGTT study (oral glucose tolerance test); assay type: in vivo, Male C57BL/6 mice; conditions: 30 mpk oral gavage, blood glucose AUC 0-120 minutes after 5 g/kg glucose challenge
Experimental: as §1

T1 sequence (O14842 whole entry): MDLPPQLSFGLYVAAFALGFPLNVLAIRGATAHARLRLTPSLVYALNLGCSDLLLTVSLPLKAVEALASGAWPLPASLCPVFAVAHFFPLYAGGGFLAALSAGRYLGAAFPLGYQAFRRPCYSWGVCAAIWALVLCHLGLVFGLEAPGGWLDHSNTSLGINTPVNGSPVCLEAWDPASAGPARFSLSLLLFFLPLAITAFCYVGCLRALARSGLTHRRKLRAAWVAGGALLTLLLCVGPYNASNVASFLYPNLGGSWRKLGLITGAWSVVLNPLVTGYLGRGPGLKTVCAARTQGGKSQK

Row | SMILES | Cl [1] [ml/mL/kg] | AUC [1] [µM·h] | half-life [1] [h] | Vd [1] [L/kg] | Cmax [1] [nM] | Tmax [1] [h] | bioavailability [1] [%] | EC50 (GPR40) [pM] | concentration at 6 h [2] [ng/mL] | % change in AUC over vehicle (C57BL/6 mice) [%]
1 | COc1ccc(C(=O)N(CC(C)(C)CCCCCCCCCCCCCCCCCC(=O)NCCC[N+](C)(CC(=O)NCCN)CC(=O)NCCN)c2cccc(C)n2)c(N2CCC(COc3cc([C@@H](CC(=O)O)C4CC4)ccn3)CC2)c1 [Example 12] | 0.15 | 33.9 | 8.9 | 0.1 | 80.7 | 5.3 | 0.17 | 170 | – | –
2 | COc1ccc(C(=O)N(CC(C)(C)CCCCCCCCCCCCCCCCCCCC(=O)NCCCN(CC(=O)O)CC(=O)O)c2cccc(C)n2)c(N2CCC(COc3cc([C@@H](CC(=O)O)C4CC4)ccn3)CC2)c1 [Example 13] | 0.14 | 88.9 | 6.5 | 0.07 | 268 | 8 | 0.52 | 760 | – | –
3 | COc1ccc(C(=O)N(CC(C)(C)CCCCCCCCCCCCCCCCCCCC(=O)NCCC[N+](C)(CC(=O)[O-])CC(=O)O)c2cccc(C)n2)c(N2CCC(COc3cc([C@@H](CC(=O)O)C4CC4)ccn3)CC2)c1 (some centres unmarked) [Example 14] | 0.20 | 68 | 6.7 | 0.09 | 164 | 8 | 0.37 | 630 | – | –
4 | COc1ccc(C(=O)N(CC(C)(C)CCCCCCCCCCCCCCCCCC(=O)NCC[N+](C)(CCCC(=O)NCCN)CCCC(=O)NCCN)c2cccc(C)n2)c(N2CCC(COc3cc([C@@H](CC(=O)O)C4CC4)ccn3)CC2)c1 [Example 17] | 0.10 | – | – | 0.08 | – | – | – | – | 237 ± 2 | −26.9
5 | COc1ccc(C(=O)N(CC(C)(C)CCCCCCCCCCCCCCCCCC(=O)NCCC[N+]23CCN(CC2)CC3)c2cccc(C)n2)c(N2CCC(COc3cc([C@@H](CC(=O)O)C4CC4)ccn3)CC2)c1 [Example 18, (S)-1-(3-(20-(2-(4-(((4-(2-carboxy-1-cyclopropylethyl)pyridin-2-yl)oxy)methyl)piperidin-1-yl)-4-methoxy-N-(6-methylpyridin-2-yl)benzamido)-19,19-dimethylicosanamido)propyl)-1,4-diazabicyclo[2.2.2]octan-1-ium TFA salt] | 0.32 | 33.7 | 5.1 | 0.11 | 42 | 4 | 0.15 | 240 | 274 ± 99 | −26.4
6 | COc1ccc(C(=O)N(CC(C)(C)CCCCCCCCCCCCCCCCCC(=O)NCCC[N+]23CC[N+](C)(CC2)CC3)c2cccc(C)n2)c(N2CCC(COc3cc([C@@H](CC(=O)O)C4CC4)ccn3)CC2)c1 [Example 19] | 0.43 | 28.5 | 4.7 | 0.11 | 77 | 4 | 0.31 | 70 | 347 ± 125 | −29.7
7 | COc1ccc(C(=O)N(CC(C)(C)CCCCCCCCCCCCCCCCCCCCCC[N+]23CCN(CC2)CC3)c2cccc(C)n2)c(N2CCC(COc3cc([C@@H](CC(=O)O)C4CC4)ccn3)CC2)c1 [Example 21, (S)-1-(24-(2-(4-(((4-(2-carboxy-1-cyclopropylethyl)pyridin-2-yl)oxy)methyl)piperidin-1-yl)-4-methoxy-N-(6-methylpyridin-2-yl)benzamido)-23,23-dimethyltetracosyl)-1,4-diazabicyclo[2.2.2]octan-1-ium] | 0.67 | 18.5 | 7.2 | 0.36 | 37 | 6.7 | 0.34 | 2040 | – | –
